Reference: patent US4530930A, “Antimicrobial 1-ethyl-6,8-difluoro-1,4-dihydro-7-(1-imidazolyl)-4-oxoquinoline-3-carbo xylic acid derivatives” (Kanebo, Ltd., priority 1982, dated 1985)
Values after ≈ are worked out from the molar mass of the structure shown. “Also recorded” adds a separate entry of the source. Where two headings read alike, the source gives them in different places.

What was measured:
[1] = system: Bacillus subtilis ATCC 6633; test: MIC; format: cell-based; conditions: ATCC6633, gram positive
Procedure: (§1) In accordance with the method as disclosed in Chemotherapy, Vol. 29, pages 76-79 (1981), MIC (μg/ml) of each test compound was measured.

[2] = system: Salmonella paratyphi 1015; test: MIC; format: cell-based; conditions: Salmonella enterica
Procedure: as §1

[3] = system: Klebsiella pneumoniae PCI-602; test: MIC; format: cell-based; conditions: PCI602, gram negative
Procedure: as §1

[4] = system: Pseudomonas aeruginosa IFO 3445; test: MIC; format: cell-based
Procedure: as §1

[5] = system: Escherichia coli NIHJ JC-2; test: MIC; format: cell-based; conditions: NIHJJC2, gram negative
Procedure: as §1

[6] = system: Staphylococcus epidermidis; test: MIC; format: cell-based; conditions: gram positive
Procedure: as §1

[7] = system: Staphylococcus aureus FDA 209P JC-1; test: MIC; format: cell-based; conditions: FDA209P, gram positive
Procedure: as §1

[8] = system: Proteus Vulgaris HX-19; test: MIC; format: cell-based; conditions: gram negative
Procedure: as §1

[9] = system: ddY-strain male mice; test: in vivo; format: in vivo; conditions: 10080 min
Procedure: (§2) The acute toxicities in oral administration and intravenous injection of the test compounds were tested as follows:
In intravenous administration: Each of the test compounds was dissolved in 1N aqueous sodium hydroxide solution and thereto was added a phosphoric acid-saline buffer (pH 7.2) to prepare a test solution. The test solution was intravenously injected to ddy-strain male mice (weighing 20-25 g, five per group). One week after the administration of the test solution, the LD50 was determined in accordance with Weil method.

[10] = Bioavailability in oral administration in mice; format: in vivo, ddY-strain male mice; conditions: for AUC at 4 h / concentration at 0.5 h / concentration at 1 h / concentration at 2 h / concentration at 4 h: mouse
Procedure: Each of the test compounds was suspended in a 0.5% sodium carboxymethylcellulose to prepare a suspension having a concentration of 5 mg/ml of the compound.
ddY-strain male mice (5 week old, weighing 22 to 25 g, three per group) were used. The suspension was orally administered to mice fasted for 16 hours. The dose of the test compound was adjusted to 50 mg/kg of body weight of animal. 30, 60, 120, and 240 minutes after the administration of the test compound, blood was taken out from each mouse, and the blood sample thus obtained was centrifuged at 3,000 rpm for 20 minutes to obtain a serum sample.

[11] = system: Serratia marcescens IAM 1184; test: MIC; format: cell-based; conditions: IAM1184, gram negative
Procedure: as §1

[12] = system: ddY-strain male mice; test: in vivo; conditions: mice, p.o., one week, Weil method; 10080 min
Procedure: as §2
(§3) In oral administration: To ddY-strain male mice (weighing 20-25 g, five per group) was administered orally a suspension of each test compound in a 0.5% sodium carboxymethylcellulose. […] J. Biometric Soc., 8, 249 (1959)].

[13] = Bioavailability in oral administration in rats; format: in vivo, Wistar-strain male rats; set-up: AUC at 4 h: concentration or dose not given beside the values; conditions: rat
Procedure: Each of the test compounds was suspended in a 0.5% sodium carboxymethylcellulose to prepare a suspension having a concentration of 5 mg/ml of the test compound.
Wistar-strain male rats (weighing 160 g ±20 g, three per group) were used. The suspension was orally administered to rats fasted 16 hours. 30, 60, 120, and 240 minutes after the administration of the test compound, blood was taken out from the rats. The blood was centrifuged at 3,000 rpm for 20 minutes to obtain a plasma sample. In the same manner as described in Experiment 2, the concentration (μg/ml) of test compound in plasma and also AUC (μg.hr/ml) were measured.

[14] = system: ddY-strain male mice; conditions: i.v.; data reported at Nippon Kagakuryohogakkai 28th Meeting (1980, Tokyo); 10080 min; cited from earlier work
[15] = system: ddY-strain male mice; conditions: p.o.; data reported at Nippon Kagakuryohogakkai 28th Meeting (1980, Tokyo); 10080 min; cited from earlier work
[16] = system: Microorganisms; test: In vitro anti-microbial activity (MIC), overall; format: cell-based; conditions: Experiment 1
Procedure: as §1

[17] = in vivo; conditions: mouse, in vivo, po
Procedure: as §2, §3

[18] = IFO3445, gram negative, read-out: MIC
[19] = mice, i.v., one week, Weil method
[20] = serum, mice, oral 50 mg/kg, after 30 min., read-out: Concentration in serum
[21] = serum, mice, oral 50 mg/kg, after 60 min., read-out: Concentration in serum
[22] = serum, mice, oral 50 mg/kg, after 120 min., read-out: Concentration in serum
[23] = serum, mice, oral 50 mg/kg, after 240 min., read-out: Concentration in serum
[24] = mice, oral 50 mg/kg, serum, 1-4 hrs., read-out: AUC
[25] = plasma, rats, oral, after 30 min., read-out: Concentration in plasma
[26] = plasma, rats, oral, after 60 min., read-out: Concentration in plasma
[27] = plasma, rats, oral, after 120 min., read-out: Concentration in plasma
[28] = plasma, rats, oral, after 240 min., read-out: Concentration in plasma
[29] = rats, oral, plasma, 1-4 hrs., read-out: AUC

SMILES	MIC [1] [µg/mL]	MIC [2] [µg/mL]	MIC [3] [µg/mL]	MIC [4, 18] [µg/mL]	MIC [5] [µg/mL]	MIC [6] [µg/mL]	MIC [7] [µg/mL]	MIC [8] [µg/mL]	MIC [11] [µg/mL]	concentration at 0.5 h [10, 20] [ng/mL]	concentration at 1 h [10, 21] [ng/mL]	concentration at 2 h [10, 22] [ng/mL]	concentration at 4 h [10, 23] [ng/mL]	AUC at 4 h [10, 24] [ng·h/mL]	concentration at 0.5 h [13, 25] [ng/mL]	concentration at 1 h [13, 26] [ng/mL]	concentration at 2 h [13, 27] [ng/mL]	concentration at 4 h [13, 28] [ng/mL]	AUC at 4 h [13, 29] [ng·h/mL]	other results
CCn1cc(C(=O)O)c(=O)c2cc(F)c(N3CCN(C)CC3)cc21 [B, 1-ethyl-1,4-dihydro-6-fluoro-7-[1-(4-methylpiperazinyl)]-4-oxoquinoline-3carboxylic acid]	0.2 (≈ 0.6 µM)	0.1 (≈ 0.3 µM)	0.1 (≈ 0.3 µM)	1.56 (≈ 4.68 µM)	0.39 (≈ 1.17 µM)	0.78 (≈ 2.34 µM)	0.39 (≈ 1.17 µM)	0.1 (≈ 0.3 µM)	–	–	–	–	–	–	–	–	–	–	–	–
CCn1cc(C(=O)O)c(=O)c2cc(F)c(N3CCNCC3)c(F)c21 [C, 1-ethyl-6,8-difluoro-1,4-dihydro-4-oxo-7-(1-piperazinyl)quinoline-3-carboxylic acid]	0.39 (≈ 1.16 µM)	0.1 (≈ 0.296 µM)	0.1 (≈ 0.296 µM)	0.78 (≈ 2.31 µM)	0.2 (≈ 0.593 µM)	3.13 (≈ 9.28 µM)	0.39 (≈ 1.16 µM)	0.1 (≈ 0.296 µM)	0.78 (≈ 2.31 µM)	–	–	–	–	–	–	–	–	–	–	LD50 [9, 19]: 193 mg/kg; AUC at 4 h ([10]; in vivo, po, 50 mg/kg): 12400 ng·h/mL; concentration at 0.5 h ([10]; in vivo, po, 50 mg/kg): 6260 ± 1570 ng/mL; concentration at 1 h ([10]; in vivo, po, 50 mg/kg): 3510 ± 1290 ng/mL; concentration at 2 h ([10]; in vivo, po, 50 mg/kg): 3410 ± 670 ng/mL; concentration at 4 h ([10]; in vivo, po, 50 mg/kg): 1530 ± 270 ng/mL; LD50 [12]: 1,072 mg/kg; AUC at 4 h ([13]; in vivo, po): 26000 ng·h/mL; concentration at 0.5 h ([13]; in vivo, po): 11700 ± 1100 ng/mL; concentration at 1 h ([13]; in vivo, po): 12300 ± 800 ng/mL; concentration at 2 h ([13]; in vivo, po): 6400 ± 300 ng/mL; concentration at 4 h ([13]; in vivo, po): 2000 ± 1800 ng/mL
CCn1cc(C(=O)O)c(=O)c2cc(F)c(N3CCNCC3)cc21 [Compound A, 1-ethyl-1,4-dihydro-6-fluoro-4-oxo-7-(1-piperazinyl)quinoline-3-carboxylicacid]	0.39 (≈ 1.22 µM)	0.1 (≈ 0.313 µM)	0.1 (≈ 0.313 µM)	–	0.39 (≈ 1.22 µM)	3.13 (≈ 9.8 µM)	0.39 (≈ 1.22 µM)	0.1 (≈ 0.313 µM)	0.39 (≈ 1.22 µM)	1050 ± 240	690 ± 70	400 ± 50	360 ± 30	2000	1810 ± 140	1190 ± 20	630 ± 110	250 ± 10	2990	LD50 [14]: 220 mg/kg; MIC ([4]; IFO3445): 1.56 µg/mL (≈ 4.89 µM); LD50 [15]: > 4,000 mg/kg
CCn1cc(C(=O)O)c(=O)c2cnc(-n3ccnc3)cc21 [E, 1-ethyl-1,4-dihydro-7-(1-imidazolyl)-4-oxo-1,6-naphthylidine-3-carboxylic acid]	100 (≈ 352 µM)	12.5 (≈ 44 µM)	25 (≈ 87.9 µM)	> 100	> 100	> 100	> 100	3.12 (≈ 11 µM)	100 (≈ 352 µM)	–	–	–	–	–	–	–	–	–	–	anti-microbial activities in vitro (MIC), in words [16]: less antimicrobial activities; also recorded: far less activities
CC1COc2c(-n3ccnc3)c(F)cc3c(=O)c(C(=O)O)cn1c23 (stereo not drawn) [F, 2,3-dihydro-9-fluoro-10-(1-imidazolyl)-3-methyl-7-oxo-7H-pyrido[1,2,3-de][1,4]benzoxazine-6-carboxylic acid]	0.1 (≈ 0.304 µM)	0.05 (≈ 0.152 µM)	0.05 (≈ 0.152 µM)	3.12 (≈ 9.48 µM)	0.39 (≈ 1.18 µM)	1.56 (≈ 4.74 µM)	0.19 (≈ 0.577 µM)	0.025 (≈ 0.0759 µM)	3.12 (≈ 9.48 µM)	6400 ± 1800	2600 ± 1000	1200 ± 300	600 ± 200	7500	–	–	–	–	–	bioavailability when administered orally, in words ([10]; mice, oral, Experiment 2): inferior to the compounds of the present invention in the bioavailability
CCn1cc(C(=O)O)c(=O)c2cc(F)c(-n3ccnc3)c(F)c21 [I-a, 1-Ethyl-6,8-difluoro-1,4-dihydro-7-(1-imidazolyl)-4-oxoquinoline-3-carboxylic acid]	0.1 (≈ 0.313 µM)	0.05 (≈ 0.157 µM)	0.05 (≈ 0.157 µM)	6.25 (≈ 19.6 µM)	0.2 (≈ 0.626 µM)	3.13 (≈ 9.8 µM)	0.39 (≈ 1.22 µM)	0.025 (≈ 0.0783 µM)	1.56 (≈ 4.89 µM)	44800 ± 8900	39300 ± 5200	7600 ± 1700	1700 ± 500	64900	54900 ± 3900	70800 ± 3100	48000 ± 4300	31300 ± 3600	184000	LD50 [9, 19]: 773 mg/kg; LD50 at 168 h ([17]; mice, one week, Weil method): > 4000 mg/kg
CCn1cc(C(=O)O)c(=O)c2cc(F)c(-n3cnc(C)c3)c(F)c21 [I-b, 1-Ethyl-6,8-difluoro-1,4-dihydro-7-[1-(4-methylimidazolyl)]-4-oxoquinoline-3-carboxylic acid]	0.05 (≈ 0.15 µM)	0.1 (≈ 0.3 µM)	0.1 (≈ 0.3 µM)	6.25 (≈ 18.8 µM)	0.39 (≈ 1.17 µM)	3.13 (≈ 9.39 µM)	0.78 (≈ 2.34 µM)	0.025 (≈ 0.075 µM)	3.13 (≈ 9.39 µM)	49200 ± 2500	29400 ± 2500	10000 ± 800	6300 ± 1100	67900	58700 ± 5300	62900 ± 6000	52000 ± 4000	33500 ± 4900	188000	LD50 ([9]; mouse, in vivo, iv): 593 mg/kg; LD50 at 168 h [17]: > 4000 mg/kg
